Results published in paper PMC7876106 (Scientific Reports, 2021).

Experiments:
TERRA = assay: FP assay, compound binding to 5′ fluorescein-labeled TERRA; details: 10 nM fluorescein-labeled probe, 3 independent experiments
Experimental: All the nucleic acids, peptides and chemicals were dissolved in buffer containing 20 mM HEPES pH7.5, 150 mM salt (KCl, NaCl, LiCl) at the stock concentration of 1 mM. For peptide and nucleic acid interactions, 25μL of each nucleic acids with a sequential twofold dilutions starting from 50 μM was added into each well of 96-well plate followed by adding 25μL of 10 nM FITC labeled TRF2 peptide. For compounds and nucleic acid interactions, 20μL of each compounds with a sequential twofold dilutions starting from 50 μM were added into each well of 96-well plate followed by adding 5μL of 20 ng/mL tRNA and 25μL of 10 nM FAM labeled nucleic acids. For inhibition assay, 5μL FITC labeled TRF2 GAR peptide (10 nM final concentration) and 10 μL oligos (5 μM final concentration) were mixed, followed by adding 5μL of each compound with a sequential twofold dilutions starting from 50 μM into each well of 384-well plate. All components were mixed thoroughly, and the plate was incubated at room temperature for 1 h before placing in an Envision Plate Reader for reading at 495/520 nm. All data curves were fitted using Prism 8.0.

[1] = test system: TERRA (5'-fluorescein) (RNA, G4) UUAGGGUUAGGGUUAGGGUUAGGG; assay: fluorescence polarization; details: 150 mM KCl, NaCl or LiCl (salt not specified); 20 mM HEPES; 20 mM HEPES pH 7.5, room temperature, tRNA competitor added, 10 nM probe; apparent
[2] = test system: TRF2 binding to telomere DNA; assay: DNA ChIP assay of TRF2 binding to telomere DNA in LOX cells; type: cell-based, human; details: 2 μM, 2 days
Experimental: The lysates were sonicated, cleared by centrifugation, and supernatants were diluted 10 fold into IP Buffer (0.01% SDS, 1.1% Triton X-100, 1.2mM EDTA, 16.7mM Tris pH 8.1, 167mM NaCl, protease inhibitors cocktail, 50U/ml SUPERase•in) for IP reaction with rabbit IgG (Santa Cruz Biotechnology) or rabbit polyclonal anti-TRF2 (Pocono Rabbit Farm) at 4 ° C overnight. Each immune complex was collected by Dynal A beads (Invitrogen), washed five times (1 ml wash, 10 mins each) in ChIP related wash buffer at 4 ° C, eluted by addition of 200µl Elution buffer (10mM Tris, pH 8.0, 5mM EDTA, 1% SDS, 50U/ml SUPERase.In) at 70 °C for 20 mins, and the elutes were placed at 70 °C for 2 hrs to reverse cross-linking. […]
DNA ChIP assays was performed as described previously 3 with minor modifications. Briefly, 1 x 10^7 LOX cells treated with indicated chemicals (2 µM) for 48 hrs were subject to ChIP analysis and immunoprecipitated DNA was assayed by DNA dot-blot using 32P-labeled (TTAGGG)4 or Alu probe. […]

LOX cells = assay: Metaphase telomere FISH in LOX cells; type: cell-based, human; details: 2 μM, 3 days
Experimental: (§1) Mei et al, 2020 TERRA Requires TRF2 GAR Domain
Instruments, Inc., Melville, NY) with ImagePro Plus software (Media Cybernetics, Silver Spring, MD) for image processing. Cells with > 5 53BP1/γH2AX foci co-localizing with telomere DNA foci were scored as positive for TIF. The quantification was generated from at least three independent Immuno-FISH experiments.
FISH analysis on metaphase spreads was performed as previously described 5. Briefly, LOX cells were treated with indicated chemicals (2 µM) for 3 days in a 37 °C CO2 incubator. LOX TRF2∆B cells were cultured in the absence (-) or presence (+) of 1 µg/ml doxycycline for 20 days in 37 °C incubator. Colcemid (0.1 mg/ml; GIBCO) was then added to cells and incubated for 4 hrs to accumulate mitotic cells. Cells were collected by trypsinization and suspended in 75 mM KCl hypotonic solution at 37 °C for 25 min before fixation in fresh 3:1 methanol/acetic acid for 4-5 times. Fixed cells were dropped onto cold, wet glass microscope slides and allowed to dry slowly in a humid environment. Metaphase chromosome spreads were fixed in 4% paraformaldehyde in 1x PBS for 3 min, dehydrated in ethanol series [70%, 95%,100% (vol/vol)], and air-dried. Slides were denatured for 5 min at 81 °C in hybridization mix [70% (vol/vol) formamide, 10 mM Tris·HCl (pH 7.2), and 0.5% blocking solution (Roche)] containing telomeric PNA-Cy3-(CCCTAA)3 probe (PNA Bio). […]

[3] = test system: nascent TERRA transcripts; assay: Nascent RNA capture (EU, Click-iT) and RT-qPCR for TERRA in LOX cells; type: cell-based, human; details: 2 μM, 48 h, then EU 4 h
Experimental: as §1
Nascent RNA analysis was performed as described previously 2 by the use of Click-iT Nascent RNA capture kit (Life Technologies) with some modifications. Briefly, LOX cells were treated with 2 µM of chemicals, or LOX TRF2DB cells were induced with 1 µg/ml of doxycycline for 48 hrs, and then treated cells were pulse labeled 0.2 mM EU for additional 4 hrs. Total RNA was prepared and biotinylated by Click reaction. Nascent RNA was purified by using Streptavidin T1 magnetic beads and was subject to cDNA synthesis using SuperScript VILO cDNA synthesis kit (Life Technologies). Relative Nascent RNA expression was determined using DCT methods relative to control gene U1 or Actin. Primer sequences used in qPCR analysis of 10q, 13q, XYq, and 18q TERRA were described previously 2.
Reference (Supplmentary Methods)
1 Deng, Z., Norseen, J., Wiedmer, A., Riethman, H. & Lieberman, P. M. TERRA RNA binding to TRF2 facilitates heterochromatin formation and ORC recruitment at telomeres. Mol […]
2 Deng, Z. et al. HSV-1 remodels host telomeres to facilitate viral replication. Cell Rep 9,
3 Deng, Z. et al. A role for CTCF and cohesin in subtelomere chromatin organization, TERRA transcription, and telomere end protection. EMBO J 31, 4165-4178, […]

TERRA in LOX cells = assay: TERRA levels by RNA dot blot and Northern blot in LOX cells; type: cell-based, human; details: 2 μM, 3 days; for accumulation of TERRA as a shorter form: Northern blot

| SMILES | EC50 (TERRA) [µM] | EC50 [1] [µM] | effect on TRF2 binding to telomere DNA [2] | frequency of telomere aberrations incl. fragile telomere doublets (LOX cells) | nascent TERRA transcripts from chromosomes 10q, XYq and 18q [3] | accumulation of TERRA as a shorter form (TERRA in LOX cells) | total TERRA levels relative to PP control (TERRA in LOX cells; RNA dot blot and Northern blot) |
| --- | --- | --- | --- | --- | --- | --- | --- |
| CCc1c(C)c2cc3nc(cc4nc(cc5c(CC)c(C)c(cc1[nH]2)n5C)C(C)=C4CCC(=O)O)C(CCC(=O)O)=C3C [NMM, N-methyl mesoporphyrin IX] | 0.68 | 0.68 | Neither NMM, PP, nor BRACO-19 had any significant effect | increased the frequency of telomere aberrations | significant reduction (~ two fold) | accumulated as a shorter form | reduced total TERRA levels |
| CN(C)c1ccc(Nc2c3ccc(NC(=O)CCN4CCCC4)cc3nc3cc(NC(=O)CCN4CCCC4)ccc23)cc1 [BRACO-19] | 7.4 | 7.4 | Neither NMM, PP, nor BRACO-19 had any significant effect | increased the frequency of telomere aberrations | significant reduction (~ two fold) | not observed |  |
